Values quoted from earlier work in patent US20240325362A1, “NOVEL THERAPEUTIC METHOD FOR ENHANCING MITOCHONDRIAL FUNCTION, TREATING MITOCHONDRIAL DISEASES THEREBY, AND COMPOUNDS USED THEREIN” (STANDIGM INC., priority 2020, published 2024).

Tested on: muscle mitochondrial function
Settings: clinical study, as an NAD+ precursor

SMILES: Cc1cnc(C(=O)O)c[n+]1[O-] [acipimox]
- effect on muscle mitochondrial function: beneficial effect on muscle mitochondrial function
